Twelve molecules from patent publication US6716987B1, “Derivatives of benzofuran or benzodioxazole compounds” (Kyowa Hakko Kogyo Co., Ltd., priority 1995, dated 2004) can be followed below.

Data set [1] concerns cAMP-specific phosphodiesterase (PDE IV). Kind of data set: Inhibition of the PDE IV enzyme derived from a dog trachea. The data set is classed as biochemical. The settings on record: test compound 10^−6 M; PDE IV from dog tracheal smooth muscle; substrate cAMP 1 μM. Summed up: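 Enzyme purified from dog tracheal smooth muscle; [3H]cAMP substrate at 1 μM final in 50 mM BES pH 7.2, 1 mM MgCl2, 0.1 mg/ml soybean trypsin inhibitor, 30° C for 10–30 min, 1.7% DMSO final. After HCl stop, product converted to adenosine by 5′-nucleotidase, separated on DEAE-Sephadex and scintillation-counted.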

What is called melting point is the temperature of the solid-liquid transition.

Take `COc1ccc(C(=O)NC2CCCCC2)c2c1OCC2CC(=O)O` (racemic) [Compound 12, (±)-3-Carboxymethyl-4-cyclohexylaminocarbonyl-7-methoxy-2,3-dihydrobenzofuran]: the melting point was in the range of 246 to 247 °C. Besides, the “Enzyme Inhibitory Activity (%, 10^−6 M)” value in data set [1] was determined as 8%.
The like results for `COc1ccc(C(=O)Nc2c(Cl)cncc2Cl)c2c1OCC2CC(=O)N1CCN(c2ccccc2)CC1` (racemic) [Compound 21, (±)-4-[(3,5-Dichloro-4-pyridyl)aminocarbonyl]-7-methoxy-3-[(4-phenyl-1-piperazinyl)carbonyl]methyl-2,3-dihydrobenzofuran] were, in that order, 224 °C and 84%.
Take `COc1ccc(C(=O)Cc2c(Cl)cncc2Cl)c2c1CC1(CCCC1)O2` [Compound 132, 7-[2-(3,5-Dichloro-4-pyridyl)-1-oxoethyl]-4-methoxy-spiro[2,3-dihydrobenzofuran-2,1′-cyclopentane]]: the melting point was 70 to 72 °C. The “Enzyme Inhibitory Activity (%, 10^−6 M)” value in data set [1] was determined as 66%.
For `COc1ccc(C(=O)Nc2ccccc2)c2c1OCC2CC(=O)O` (racemic) [Compound 11, (±)-3-Carboxymethyl-7-methoxy-4-phenylaminocarbonyl-2,3-dihydrobenzofuran] the same measures were 248 to 251 °C and 6%.
For `COc1ccc(C#Cc2ccncc2)c2c1OC1(CCCC1)C2` [Compound 142, 7-Methoxy-4-[2-(4-pyridyl)ethynyl]-spiro[2,3-dihydrobenzofuran-2,1′-cyclopentane]], the melting point fell in the range of 128 to 131 °C. Besides, in data set [1], the “Enzyme Inhibitory Activity (%, 10^−6 M)” value was 76%.
Take `COc1ccc(C(=O)Nc2c(Cl)cncc2Cl)c2c1OCC2C(C)C` (racemic) [Compound 4, (±)-4-[(3,5-Dichloro-4-pyridyl)aminocarbonyl]-7-methoxy-3-(2-propyl)-2,3-dihydrobenzofuran]: the melting point fell in the range of 239 to 241 °C. In addition, the “Enzyme Inhibitory Activity (%, 10^−6 M)” value in data set [1] was found to be 53%.
Regarding `COc1ccc(C(=O)Nc2c(Cl)cncc2Cl)c2c1OC(C)(C)C=C2` [Compound 121, 5-(3,5-Dichloro-4-pyridylaminocarbonyl)-8-methoxy-2,2-dimethylbenzopyran], the melting point was 174 to 178 °C. Besides, the “Enzyme Inhibitory Activity (%, 10^−6 M)” value in data set [1] is on record as 85%.
`COc1ccc(CCc2c(Cl)cncc2Cl)c2c1OC(C)(C)C2` [Compound 45, 4-[2-(3,5-Dichloro-4-pyridyl)ethyl]-7-methoxy-2,2-dimethyl-2,3-dihydrobenzofuran] displayed a melting point of 128 to 133 °C. Besides, the “Enzyme Inhibitory Activity (%, 10^−6 M)” value in data set [1] was 74%.
With `COc1ccc(C(=O)Nc2c(Cl)cncc2Cl)c2c1OCC2CC(=O)O` (racemic) [Compound 9, (±)-3-Carboxymethyl-4-(3,5-dichloro-4-pyridylaminocarbonyl)-7-methoxy-2,3-dihydrobenzofuran], the melting point lay within 259 to 263 °C. Moreover, the “Enzyme Inhibitory Activity (%, 10^−6 M)” value in data set [1] is 22%.
`COc1ccc(C(=Cc2ccncc2)c2ccccc2)c2c1OCC2C` (racemic) [Compound 80, (±)-7-Methoxy-3-methyl-4-[1-phenyl-2-(4-pyridyl)ethenyl]-2,3-dihydrobenzofuran] displayed a melting point of 103 to 105.5 °C. The “Enzyme Inhibitory Activity (%, 10^−6 M)” value in data set [1] is listed as 17%.
Turning to `COc1ccc(C(=O)Nc2c(Cl)cncc2Cl)c2c1OC(C)(C)CC2` [Compound 122, 5-(3,5-Dichloro-4-pyridylaminocarbonyl)-8-methoxy-2,2-dimethyl-3,4-dihydrobenzopyran], the melting point was in the range of 155 to 156 °C. Moreover, the “Enzyme Inhibitory Activity (%, 10^−6 M)” value in data set [1] was 92%.
As to `COc1ccc(C=Cc2c(Cl)cncc2Cl)c2c1CC1(CCCC1)O2` [Compound 131, 7-[2-(3,5-Dichloro-4-pyridyl)ethenyl]-4-methoxy-spiro[2,3-dihydrobenzofuran-2,1′-cyclopentane]], the melting point fell in the range of 99 to 101 °C. Further, the “Enzyme Inhibitory Activity (%, 10^−6 M)” value in data set [1] is on record as 51%.
